The results in this text go back to patent publication US11339171B2, “MDM2 inhibitors” (Gan & Lee Pharmaceuticals, priority 2017, dated 2022).

In this test the target is T1, MDM2 (Homo sapiens, UniProt Q00987).
T1 construct: made in house
Nature of the test: Inhibition test of MDM2-P53 (GST-MDM2, Biotin-P53, Anti-GST-Tb, SA-XL665). It counts as binding. Conditions: for inhibitory effect on MDM2 compared with positive control compound HDM201: labels are Example numbers, the compounds with S-configuration are meant. In outline:
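HTRF-type assay using 4 nM GST-MDM2 (final), Biotin-P53, SA-XL665 and anti-GST-Tb in PBS with 0.1% BSA, 5 mM DTT and 1 mM AEBSF. Compounds in 5-fold serial dilutions over twelve points; incubation 90 min at 25° C with shaking before plate-reader read-out.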

pIC50: −log10 of the molar value.

T1 sequence (Q00987 whole entry): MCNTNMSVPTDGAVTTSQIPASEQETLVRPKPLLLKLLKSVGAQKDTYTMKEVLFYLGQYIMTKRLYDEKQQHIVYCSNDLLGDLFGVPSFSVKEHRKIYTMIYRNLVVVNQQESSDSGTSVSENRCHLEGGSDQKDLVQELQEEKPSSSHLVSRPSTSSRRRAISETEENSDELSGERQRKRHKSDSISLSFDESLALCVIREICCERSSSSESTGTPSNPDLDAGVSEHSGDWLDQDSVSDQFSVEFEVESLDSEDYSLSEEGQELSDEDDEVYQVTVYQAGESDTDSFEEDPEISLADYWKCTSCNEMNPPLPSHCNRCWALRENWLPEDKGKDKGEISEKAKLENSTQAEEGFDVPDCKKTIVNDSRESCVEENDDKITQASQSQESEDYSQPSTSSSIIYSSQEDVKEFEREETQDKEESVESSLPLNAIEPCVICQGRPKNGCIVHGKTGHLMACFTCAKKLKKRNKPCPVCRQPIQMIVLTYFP

As a reminder, the pIC50 is the IC50 on a negative log10 scale, so that one unit is a factor of ten. Low values mean a high IC50, high ones a low IC50. `COc1nc(OCC(F)(F)F)ncc1-c1nc2c(n1C(C)C)[C@]1(C(=O)Nc3cc(Cl)ccc31)N(c1cc(Cl)ccc1C)C2=O` [Example R-141, (R)-6-chloro-5′-(5-chloro-2-methylphenyl)-3′-isopropyl-2′-(4-methoxy-2-(2,2,2-trifluoroethoxy)pyrimidin-5-yl)-3′H-spiro[dihydroindole-3,4′-pyrrolo[3,4-d]imidazole]-2,6′(5′H)-dione] gave a pIC50 of 6.12. Consider `COc1cc(C(F)(F)F)ncc1-c1nc2c(n1C(C)C)C1(C(=O)Nc3cc(Cl)ccc31)N(c1cc(Cl)cnc1C)C2=O` (centres unmarked) [Example 152, 6-chloro-5′-(5-chloro-2-methylpyridin-3-yl)-3′-isopropyl-2′-(4-methoxy-6-(trifluoromethyl)pyridine-3-yl)-3′H-spiro[dihydroindole-3,4′-pyrrolo[3,4-d]imidazole]-2,6′(5′H)-dione], for which the “inhibitory effect on MDM2 compared with positive control compound HDM201” value was “better”. For the molecule `COc1ncc(-c2nc3c(n2C2CCC2)[C@]2(C(=O)Nc4cc(Cl)ccc42)N(c2cc(Cl)ccc2C)C3=O)c(OC)n1` [Example R-41, (R)-6-chloro-5′-(5-chloro-2-methylphenyl)-3′-cyclobutyl-2′-(2,4-dimethoxypyrimidin-5-yl)-3′H-spiro[dihydroindole-3,4′-pyrrolo[3,4-d]imidazole]-2,6′(5′H)-dione], the pIC50 was 5.14. The same measure, in the same setting: under `COc1cc(C)ncc1-c1nc2c(n1C(C)C)[C@]1(C(=O)Nc3cc(Cl)ccc31)N(c1cc(Cl)ccc1C)C2=O` [Example R-154, (R)-6-chloro-5′-(5-chloro-2-methylphenyl)-3′-isopropyl-2′-(4-methoxy-6-methylpyridin-3-yl)-3′H-spiro[dihydroindole-3,4′-pyrrolo[3,4-d]imidazole]-2,6′(5′H)-dione] stands 7.51; under `COc1cc(OC)c(-c2nc3c(n2C(C)C)[C@]2(C(=O)Nc4cc(Cl)ccc42)N(c2ccc(C(N)=O)c(Cl)c2)C3=O)cn1` [Example R-65, (R)-2-chloro-4-(6-chloro-2′-(4,6-dimethoxypyridin-3-yl)-3′-isopropyl-2,6′-dioxo-3′,6′-dihydro-5′H-spiro[dihydroindole-3,4′-pyrrolo[3,4-d]imidazole]-5′-yl)benzamide], 6.30; under `COc1nc(OCCF)ncc1-c1nc2c(n1C(C)C)[C@]1(C(=O)Nc3cc(Cl)ccc31)N(c1cccc(Cl)c1)C2=O` [Example R-171, (R)-6-chloro-5′-(3-chlorophenyl)-2′-(2-(2-fluoroethoxy)-4-methoxypyrimidin-5-yl)-3′-isopropyl-3′H-spiro[dihydroindole-3,4′-pyrrolo[3,4-d]imidazole]-2,6′(5′H)-dione], 5.05. Still for that read-out and setting: the figure for `COc1ncc(-c2nc3c(n2C2CC2)[C@]2(C(=O)Nc4cc(Cl)ccc42)N(c2cc(Cl)ccc2C)C3=O)c(OC)n1` [Example R-28, (R)-6-chloro-5′-(5-chloro-2-methylphenyl)-3′-cyclopropane-2′-(2,4-dimethoxypyrimidin-5-yl)-3′H-spiro[dihydroindole-3,4′-pyrrolo[3,4-d]imidazole]-2,6′(5′H)-dione] is 5.51; for `COc1cc(C(C)(C)C)ccc1-c1nc2c(n1C(C)C)[C@]1(C(=O)Nc3cc(Cl)ccc31)N(c1cc(Cl)ccc1C)C2=O` [Example R-101, (R)-2′-(4-(tert-butyl)-2-methoxyphenyl)-6-chloro-5′-(5-chloro-2-methylphenyl)-3′-isopropyl-3′H-spiro[dihydroindole-3,4′-pyrrolo[3,4-d]imidazole]-2,6′(5′H)-dione] it is 5.70.

Turning to `COc1ccc(N2C(=O)c3nc(-c4ccccc4OC)n(C(C)C)c3C23C(=O)Nc2cc(Cl)ccc23)cc1Cl` (centres unmarked) [Example 63, 6-chloro-5′-(3-chloro-4-methoxyphenyl)-3′-isopropyl-2′-(2-methoxyphenyl)-3′H-spiro[dihydroindole-3,4′-pyrrolo[3,4-d]imidazole]-2,6′(5′H)-dione], the “inhibitory effect on MDM2 compared with positive control compound HDM201” value is on record as “better”.

As to `COc1cc(OCCF)ncc1-c1nc2c(n1C(C)C)[C@]1(C(=O)Nc3cc(Cl)ccc31)N(c1cc(Cl)ccc1C)C2=O` [Example R-163, (R)-6-chloro-5′-(5-chloro-2-methylphenyl)-2′-(6-(2-fluoroethoxy)-4-methoxypyridin-3-yl)-3′-isopropyl-3′H-spiro[dihydroindole-3,4′-pyrrolo[3,4-d]imidazole]-2,6′(5′H)-dione], the pIC50 is 6.78. Same read-out and setting: the figure for `COc1cc(C2CC2)ccc1-c1nc2c(n1C(C)C)[C@]1(C(=O)Nc3cc(Cl)ccc31)N(c1cccc(Cl)c1)C2=O` [Example R-116, (R)-6-chloro-5′-(3-chlorophenyl)-2′-(4-cyclopropyl-2-methoxyphenyl)-3′-isopropyl-3′H-spiro[dihydroindole-3,4′-pyrrolo[3,4-d]imidazole]-2,6′(5′H)-dione] is 6.16. In the case of `COc1cc(OCCO)ccc1-c1nc2c(n1C(C)C)C1(C(=O)Nc3cc(Cl)ccc31)N(c1cc(Cl)ccc1C)C2=O` (centres unmarked) [Example 148, 6-chloro-5′-(5-chloro-2-methylphenyl)-2′-(4-(2-hydroxyethoxy)-2-methoxyphenyl)-3′-isopropyl-3′H-spiro[dihydroindole-3,4′-pyrrolo[3,4-d]imidazole]-2,6′(5′H)-dione], the “inhibitory effect on MDM2 compared with positive control compound HDM201” value is reported as “better”.

For `COc1cc(C(F)(F)F)ncc1-c1nc2c(n1C(C)C)[C@]1(C(=O)Nc3cc(Cl)ccc31)N(c1cc(Cl)cnc1C)C2=O` [Example R-152, (R)-6-chloro-5′-(5-chloro-2-methylpyridin-3-yl)-3′-isopropyl-2′-(4-methoxy-6-(trifluoromethyl)pyridine-3-yl)-3′H-spiro[dihydroindole-3,4′-pyrrolo[3,4-d]imidazole]-2,6′(5′H)-dione], the pIC50 was 6.87. The same measure, in the same setting: the figure for `COc1cccc(OC)c1-c1nc2c(n1C(C)C)[C@]1(C(=O)Nc3cc(Cl)ccc31)N(c1cc(Cl)ccc1C)C2=O` [Example R-79, (R)-6-chloro-5′-(5-chloro-2-methylphenyl)-2′-(2,6-dimethoxyphenyl)-3′-isopropyl-3′H-spiro[dihydroindole-3,4′-pyrrolo[3,4-d]imidazole]-2,6′(5′H)-dione] is 6.54; for `CCOc1cc(OC)c(-c2nc3c(n2C(C)C)[C@]2(C(=O)Nc4cc(Cl)ccc42)N(c2cc(Cl)cnc2C)C3=O)cn1` [Example R-96, (R)-6-chloro-5′-(5-chloro-2-methylpyridin-3-yl)-2′-(6-ethoxy-4-methoxypyridin-3-yl)-3′-isopropyl-3′H-spiro[dihydroindole-3,4′-pyrrolo[3,4-d]imidazole]-2,6′(5′H)-dione] it is 6.82. The same measure, in the same setting: the figure for `COc1ncc(-c2nc3c(n2C(C)C)[C@@]2(C(=O)Nc4cc(Cl)ccc42)N(c2cc(Cl)ccc2C#N)C3=O)c(OC)n1` [Example S-151, (S)-4-chloro-2-(6-chloro-2′-(2,4-dimethoxypyrimidin-5-yl)-3′-isopropyl-2,6′-dioxo-3′,6′-dihydro-5′H-spiro[dihydroindole-3,4′-pyrrolo[3,4-d]imidazole]-5′-yl)benzonitrile] is 5.85.

In turn, `COc1cc(OC(C)C)ncc1-c1nc2c(n1C(C)C)[C@]1(C(=O)Nc3cc(Cl)ccc31)N(c1cc(Cl)cnc1C)C2=O` [Example R-137, (R)-6-chloro-5′-(5-chloro-2-methylpyridin-3-yl)-2′-(6-isopropoxy-4-methoxypyridin-3-yl)-3′-isopropyl-3′H-spiro[dihydroindole-3,4′-pyrrolo[3,4-d]imidazole]-2,6′(5′H)-dione] showed a pIC50 of 6.37. In the case of `COc1cc(OCCF)ncc1-c1nc2c(n1C(C)C)C1(C(=O)Nc3cc(Cl)ccc31)N(c1cc(Cl)cnc1C)C2=O` (centres unmarked) [Example 173, 6-chloro-5′-(5-chloro-2-methylpyridin-3-yl)-2′-(6-(2-fluoroethoxy)-4-methoxypyridin-3-yl)-3′-isopropyl-3′H-spiro[dihydroindole-3,4′-pyrrolo[3,4-d]imidazole]-2,6′(5′H)-dione], the “inhibitory effect on MDM2 compared with positive control compound HDM201” value is on record as “better”. Same read-out and setting: under `COc1ncc(-c2nc3c(n2C(C)C)C2(C(=O)Nc4cc(Cl)ccc42)N(c2ccc(OC)c(Cl)c2)C3=O)c(OC)n1` (centres unmarked) [Example 48, 6-chloro-5′-(3-chloro-4-methoxyphenyl)-2′-(2,4-dimethoxypyrimidin-5-yl)-3′-isopropyl-3′H-spiro[dihydroindole-3,4′-pyrrolo[3,4-d]imidazole]-2,6′(5′H)-dione] stands “better”. `COc1nc(N2CCC2)ncc1-c1nc2c(n1C(C)C)[C@]1(C(=O)Nc3cc(Cl)ccc31)N(c1cc(Cl)ccc1C)C2=O` [Example R-117, (R)-2′-(2-(12zetidine-1-yl)-4-methoxypyrimidin-5-yl)-6-chloro-5′-(5-chloro-2-methylphenyl)-3′-isopropyl-3′H-spiro[dihydroindole-3,4′-pyrrolo[3,4-d]imidazole]-2,6′(5′ H)-dione] showed a pIC50 of 6.63. Still for that read-out and setting: under `COc1nc(N(C)C)ncc1-c1nc2c(n1C(C)C)[C@]1(C(=O)Nc3cc(Cl)ccc31)N(c1cccc(Cl)c1)C2=O` [Example R-112, (R)-6-chloro-5′-(3-chlorophenyl)-2′-(2-(dimethylamino)-4-methoxypyrimidin-5-yl)-3′-isopropyl-3′H-spiro[dihydroindole-3,4′-pyrrolo[3,4-d]imidazole]-2,6′(5′H)-dione] stands 6.98; under `COc1cc(C(C)C)ccc1-c1nc2c(n1C(C)C)[C@]1(C(=O)Nc3cc(Cl)ccc31)N(c1cc(Cl)cnc1C)C2=O` [Example R-89, (R)-6-chloro-5′-(5-chloro-2-methylpyridin-3-yl)-3′-isopropyl-2′-(4-isopropyl-2-methoxyphenyl)-3′H-spiro[dihydroindole-3,4′-pyrrolo[3,4-d]imidazole]-2,6′(5′H)-dione], 6.24; under `COc1cc(C(C)C)ccc1-c1nc2c(n1C(C)C)[C@@]1(C(=O)Nc3cc(Cl)ccc31)N(c1cccc(Cl)c1)C2=O` [Example S-93, (S)-6-chloro-5′-(3-chlorophenyl)-3′-isopropyl-2′-(4-isopropyl-2-methoxyphenyl)-3′H-spiro[dihydroindole-3,4′-pyrrolo[3,4-d]imidazole]-2,6′(5′H)-dione], 8.41.
